# Experimental data reported in BindingDB's records for doi:10.1016/s0960-894x(99)00093-1 (Sankyo, 1999).
# pIC50: −log10 of the molar value.
# Key:
# Substance-K receptor [1] = target: T1, Substance-K receptor (Cavia porcellus, UniProt Q64077); test: ChEBML_142706
# T1 sequence (Q64077 whole entry): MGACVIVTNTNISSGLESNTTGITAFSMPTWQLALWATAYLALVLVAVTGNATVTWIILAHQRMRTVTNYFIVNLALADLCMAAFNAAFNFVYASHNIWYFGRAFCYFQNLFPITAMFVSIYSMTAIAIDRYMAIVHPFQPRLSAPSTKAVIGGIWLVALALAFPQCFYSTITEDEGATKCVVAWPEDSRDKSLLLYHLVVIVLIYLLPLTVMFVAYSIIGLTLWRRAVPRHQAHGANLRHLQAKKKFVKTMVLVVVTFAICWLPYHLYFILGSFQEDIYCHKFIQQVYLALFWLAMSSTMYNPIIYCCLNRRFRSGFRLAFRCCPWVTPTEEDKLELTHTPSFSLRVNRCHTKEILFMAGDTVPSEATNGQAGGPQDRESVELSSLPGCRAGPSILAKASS
# Excerpt: (§1) Inhibitory activity against Neurokinin 2 (NK2) receptor from guinea pig ileum
# Substance-K receptor [2] = target: T1, Substance-K receptor; test: as §1
# Substance-P receptor [3] = target: T2, Substance-P receptor (Cavia porcellus, UniProt P30547); test: ChEBML_144914
# Excerpt: (§2) Inhibitory activity against Neurokinin 1 (NK1) receptor from guinea pig lung
# Substance-P receptor [4] = target: T2, Substance-P receptor; test: as §2
# T2 sequence (P30547 whole entry): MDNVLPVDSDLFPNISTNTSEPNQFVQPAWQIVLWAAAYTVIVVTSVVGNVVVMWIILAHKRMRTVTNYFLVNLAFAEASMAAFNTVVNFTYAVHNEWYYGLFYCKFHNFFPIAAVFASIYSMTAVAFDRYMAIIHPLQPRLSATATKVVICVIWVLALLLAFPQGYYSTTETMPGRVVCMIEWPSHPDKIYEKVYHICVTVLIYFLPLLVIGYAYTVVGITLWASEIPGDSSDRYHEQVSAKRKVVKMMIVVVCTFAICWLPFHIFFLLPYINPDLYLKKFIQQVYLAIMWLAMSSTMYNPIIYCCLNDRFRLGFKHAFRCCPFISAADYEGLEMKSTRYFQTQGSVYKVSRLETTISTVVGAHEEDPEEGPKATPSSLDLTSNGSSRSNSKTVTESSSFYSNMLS
SMILES,pIC50 (Substance-K receptor [2]),pIC50 (Substance-P receptor [4]),further results
COc1cc(C(=O)N2CO[C@](CCN3CCC4(CC3)c3ccccc3C[S+]4[O-])(c3ccc(Cl)c(Cl)c3)C2)cc(OC)c1OC (some centres undefined),,,pIC50 (Substance-K receptor [1]): 8.12
COc1cc(C(=O)N2CO[C@](CCN3CCC4(CC3)C(=O)N(C)c3ccccc34)(c3ccc(Cl)c(Cl)c3)C2)cc(OC)c1OC,,,pIC50 (Substance-K receptor [1]): 7.47
COc1cc(C(=O)N2CO[C@](CCN3CCC(C(N)=O)(c4ccccc4)CC3)(c3ccc(Cl)c(Cl)c3)C2)cc(OC)c1OC,,,pIC50 (Substance-K receptor [1]): 7.04
COc1cc(C(=O)N2CO[C@](CCN3CCC4(CC3)C[S+]([O-])c3ccccc34)(c3ccc(Cl)c(Cl)c3)C2)cc(OC)c1OC (some centres undefined),8.14,,
COc1cc(C(=O)N2CO[C@](CCN3CCC4(CC3)c3ccccc3C[S+]4[O-])(c3ccc(F)c(F)c3)C2)cc(OC)c1OC (some centres undefined),,,pIC50 (Substance-P receptor [3]): 7.80
COc1cc(C(=O)N2CO[C@](CCN3CCC4(CC3)NC(=O)Cc3ccccc34)(c3ccc(F)c(F)c3)C2)cc(OC)c1OC,,,pIC50 (Substance-P receptor [3]): 7.55
COc1cc(C(=O)N2CO[C@](CCN3CCC(C(=O)N(C)C)(c4ccccc4)CC3)(c3ccc(F)c(F)c3)C2)cc(OC)c1OC,,,pIC50 (Substance-P receptor [3]): 7.57
COc1cc(C(=O)N2CO[C@](CCN3CCC(C(N)=O)(c4ccccc4)CC3)(c3ccc(Cl)cc3)C2)cc(OC)c1OC,,7.57,
COc1cc(C(=O)N2CO[C@](CCN3CCC(C(=O)N(C)C)(c4ccccc4)CC3)(c3ccc(Cl)cc3)C2)cc(OC)c1OC,8.33,,
COc1cc(C(=O)N2CO[C@](CCN3CCN(c4ccc(C(C)=O)cc4)CC3)(c3ccc(Cl)c(Cl)c3)C2)cc(OC)c1OC,7.13,7.74,
COc1cc(C(=O)N2CO[C@](CCN3CCC(C(=O)N4CCOCC4)(c4ccccc4)CC3)(c3ccc(Cl)c(Cl)c3)C2)cc(OC)c1OC,7.28,,
COc1cc(C(=O)N2CO[C@](CCN3CCC(C(N)=O)(c4ccccc4)CC3)(c3ccc(F)c(F)c3)C2)cc(OC)c1OC,,8.00,
COc1cc(C(=O)N2CO[C@](CCN3CCC(C(N)=O)(c4ccccc4)CC3)(c3ccc(F)cc3)C2)cc(OC)c1OC,,7.57,
